This is an account of results in paper PMC10666288, “Unveiling the Catalytic Mechanism of a Processive Metalloaminopeptidase” (Biochemistry, 2023).

What all share (assay type): biochemical
What all share (set-up): GG stays after cleavage) (N); made in house; host or cells: E. coli BL21(DE3)

Test [1] concerns the target T1, PaPepA (Pseudomonas aeruginosa, UniProt Q02RY8). Particulars: aa-pNA varied, 3 mM MnCl2, 100 nM PaPepA, pH 8.0, 25 °C. As to the method:
(§1) A BMG Labtech POLARstar Omega plate reader was used for activity assays and kinetic studies involving amino acids conjugated to para-nitroaniline (pNA) (Sigma) or peptides as substrates. Assays were carried out at 25 °C in clear half-area 96-well plates (Greiner Bio-One). […] For kinetic assays investigating Leu-AMC as a substrate, a SpectraMax M2E was used. Reactions were carried out using black half-area 96-well plates with clear bottoms (Greiner Bio-One). Product formation was assessed by monitoring changes in fluorescence, with the excitation wavelength set at 341 nm and emission at 441 nm. The cutoff was 420 nm. PMT gain was set to medium, with six flashes per read. […] Calibration curves of pNA concentration vs absorbance and AMC vs fluorescence were constructed, and initial rate values were divided by the slope of these calibration curves to reveal the rate of product formation over time (Table S2).
(§2) For all assays excluding pH dependence curves, buffer conditions were as follows: 100 mM HEPES, 50 mM KCl, and pH 8.0. For assays carried out under pseudo-first-order conditions, one reaction component was fixed and in excess, while the other was varied. […] For assays involving variation of aa-pNA or aa-AMC, MnCl2 was added to a final concentration of 3 mM.

Test [2] addresses T1, PaPepA. Briefly: Metal activation of Leu-pNA cleavage (metal varied, Leu-pNA fixed). Particulars: with 2 mM Leu-pNA, pH 8.0. As to the method:
as §1, §2

Test [3] concerns the target T1, PaPepA. Nature of the test: Pre-steady-state stopped-flow kinetics with global fit. Particulars: global fit. As to the method:
An Applied Photophysics SX20 stopped-flow spectrofluorimeter was used to perform kinetic measurements under pre-steady-state conditions. The instrument was equipped with a xenon lamp, a 5 μL mixing cell, and a circulating water bath to maintain constant temperature. All reactions were carried out in 100 mM HEPES (pH 8.0) and 50 mM KCl at 25 °C. Enzyme and metal ions were kept in one syringe, while the other substrate (Leu-pNA or Leu-AMC) was kept in the second syringe. The reaction was triggered by rapid mixing of 55 μL from each syringe. Three traces with 10,000 points per trace were collected per experiment.
For absorbance measurements, product formation was monitored by reading the pNA absorbance at 405 nm (5 mm path length). Multiple turnover rates were measured in the presence of saturating concentrations of both metal and Leu-pNA. PaPepA was present at 1 or 10 μM, MnCl2 was present at 3 mM, and Leu-pNA was present at 250 μM. For fluorescence measurements, a path length of 1 mm was used. Reactions were followed by monitoring the appearance of a 7-amino-4-methylcoumarin (AMC) fluorophore following PaPepA-catalyzed breakdown of Leu-AMC. An excitation wavelength of 341 nm was used with a 400 nm cutoff filter for the emission. Slits were 1 nm for excitation and 2 nm for emission.
Experiments under single turnover conditions monitored fluorescence change with a detector voltage of 300 V, 0.1 μM Leu-AMC, 1.5 mM MnCl2, and varying PaPepA (0.5, 1, 2, 4, 8, 16, or 32 μM). Experiments under multiple turnover conditions monitored fluorescence change with a detector voltage of 250 V, 50 μM Leu-AMC, 1.2 μM PaPepA and varying concentrations of MnCl2 (0.2, 0.4, 0.6, 1.2, 2.4, 6, 9, 12, 18, 24, 60, 120, 1200, or 3600 μM).
Calibration curves of known concentrations of AMC were performed at detector voltages of 250 and 300 V. STO and MTO curves were divided by the slope of these calibration curves to convert the change in fluorescence observed to the concentration of AMC produced.
Pre-steady-state data were imported into KinTek Global Explorer and fit to linear or single-exponential equations using the aFit function to obtain standard deviation estimates. A kinetic model with five steps was considered, and rate constants and outputs were fitted according to this model. Initial estimates for rate constants were based on kcat and KM values. The FitSpace Editor was employed to determine confidence intervals for each of the rate constants. More details including model fitted and parameters used are available in the Supporting Information.
Supporting information note 4: Kintek Global Explorer fitting of stopped flow data Both MTO and STO pre-steady-state data were fit according to the mode described in Figure 4A with scaling factors for each fluorescent species (EP and P) to account for differences in AMC fluorescence whilst in complex with PaPepA versus free in solution. Scaling factors were different across STO and MTO experiments as both were carried out using different detector voltages.
The model that best fitted acquired data was as below, where F is metal free enzyme, E1 is PaPepA with one Mn2+ ion, E is PepA with two Mn2+ ions, S is Leu- […]
For fitting, k1 and k-1 ratios were constrained (linked) based KD for Mn2+ binding as measured by ITC (12nM). Initially, k2 and k-2 were allowed to vary without constraints, and values best fitted as well as Fitspace lower and upper boundaries are reported in Table 2. The value for k1 was best fitted as diffusion limited, and therefore was fixed in further fitting cycles. The best fitted value for k-2 was high and unconstrained, and therefore also fixed at 1000 s-1 for further fitting cycles. k3, k-3, k4, and k5 were not constrained. Multiple iterations of fitting were performed, and best fit values recorded. k1, k2, k3, k-3, k4, and k5 were evaluated using FitSpace Explorer to generate confidence intervals for each of these rate constants. […]

The target of test [4] is T1, PaPepA. The conditions noted are these: labelled component varied. An excerpt:
Viscosity effects were studied by using sucrose as a viscogen. Relative viscosities for different concentrations of sucrose were taken from Bazelyansky et al.[27] Concentrations of viscogen were as follows: 14% sucrose, ηrel = 1.5; 24% sucrose, ηrel = 2.2; and 32% sucrose, ηrel = 2.9.
Viscosity effects were fit to the following equation, where kinetic parameter0 and kinetic parameterη are kcat or kcat/KM in the […] of viscogen, respectively, ηrel is the relative viscosity of the solution, and m is the slope. [drawing 4] 4
All measurements were performed in triplicate.

Test [5] deals with T1, PaPepA. The conditions noted are these: 5 % PEG 8000, labelled component varied, other saturating; in 1/s.
Test [6] has as its target T1, PaPepA. Nature of the test: Alcohol dehydrogenase peptide degradation assay (LC-MS). Particulars: MassPREP ADH digest, 100 nM PaPepA, 3 mM MnCl2, overnight. As for the experimental part:
A vial of MassPREP ADH digestion standard (Waters) was reconstituted in 200 μL of LC-MS grade water. Reaction mixtures were prepared by combining 25 μL of ADH solution, 3 mM MnCl2, and 100 nM PaPepA (final concentrations) in a total volume of 50 μL buffer (100 mM HEPES pH 8.0, 50 mM KCl). For control reactions, the addition of PaPepA was omitted. Samples and controls were each prepared in triplicate and incubated overnight, and reactions quenched with the addition of […] of 10% TCA. Following the addition of acid, PaPepA was added to control samples to a final concentration of 50 nM (equivalent to a concentration of enzyme in the reaction samples following acid quenching). Samples were concentrated to 20 μL. A 1 μL portion of this was diluted in 100 μL of LC-MS grade water. 10 μL was injected and analyzed on a SCIEX TripleTOF 5600+ mass spectrometer with an Eksigent 425 nanoLC configured in trap elute configuration. Each sample was loaded onto the trap (Waters ACQUITY M-Class symmetry column 180 μm × 20 mm) and washed with 0.05% TFA in water for 5 min at 5 μL/min. The trap was then switched in line with the Waters M-Class HSS1 analytical column, 75 μm × 150 mm, with a flow rate of 300 nL/min. Samples were eluted over 30 min using a linear gradient from 98% A (100% water 0.1% FA) 2% B (80% MeCN, […] 0.1% FA) to 60% A, 40% B linearly over 12 min, rising to 5% A, 95% B, before returning to 98% A to re-equilibrate. Eluate from the column was sprayed directly into the nanospray source of the mass spectrometer. MS data were collected from 400 to 1250 m/z as the survey scan, and under data-dependent acquisition (DDA) setting, the top 20 strongest peptides were selected for MS/MS using CID fragmentation. Peptide mass tolerance was 20 ppm on the MS and 0.1 Da on the MS/MS.
Identification and analysis of ADH peptides were performed using the Skyline open-access software package (version 22.2). Raw data were extracted using msConvert (ProteoWizard) and the data searched using Skyline against the ADH1 sequence from Saccharomyces cerevisiae (UniProt: P00330). The digestion enzyme was set as trypsin, allowing up to three missed cleavages. Searches encompassed peptides between 400 and 1250 m/z with a mass tolerance of 0.3 m/z. Carbamidomethyl was set as a fixed modification for cysteine residues. Data were searched for the protonated 1+, 2+, and 3+ charge states of each peptide.
Peaks were integrated, and areas were used to qualitatively assess differences in peptide abundances across PaPepA-digested samples and controls. Peptides present in control samples but absent in reactions (integrated area <1000) were classified as “digested”.

Like-named read-outs stand apart in the source and are kept apart here.

As a reminder, the Km is the substrate concentration at which the rate is half of its maximum.

T1 sequence (Q02RY8 whole entry): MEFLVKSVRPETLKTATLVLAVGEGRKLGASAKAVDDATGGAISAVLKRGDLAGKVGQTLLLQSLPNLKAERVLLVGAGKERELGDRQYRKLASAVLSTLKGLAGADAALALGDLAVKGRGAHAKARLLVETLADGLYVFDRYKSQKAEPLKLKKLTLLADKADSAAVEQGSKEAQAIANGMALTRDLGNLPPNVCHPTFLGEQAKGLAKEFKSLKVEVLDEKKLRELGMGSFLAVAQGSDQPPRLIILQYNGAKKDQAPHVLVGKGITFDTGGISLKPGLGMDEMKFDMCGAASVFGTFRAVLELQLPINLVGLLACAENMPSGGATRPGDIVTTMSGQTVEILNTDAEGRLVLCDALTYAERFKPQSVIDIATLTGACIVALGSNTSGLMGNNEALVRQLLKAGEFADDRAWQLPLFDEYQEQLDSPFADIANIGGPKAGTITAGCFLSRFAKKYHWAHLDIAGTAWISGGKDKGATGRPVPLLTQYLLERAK

As for `C[C@H](N)C(=O)Nc1ccc([N+](=O)[O-])cc1` [Ala-pNA], at PaPepA [1], the Km is 220 ± 30 µM and the kcat came to 0.037 ± 0.001 s^–1.

On to `[Co+2]` [Co^2+], for which, at PaPepA [2], the KACT came to 0.17 ± 0.01 mM, the kcat was determined as 0.137 ± 0.002 s^–1 and the kcat/KACT is on record as 0.80 ± 0.06 s^–1mM^–1.

Consider `[Fe+2]` [Fe^2+], for which, at PaPepA [2], the KACT is listed as more than 10 mM and the kcat turned out to be 0.012 ± 0.003 s^–1.

In the case of `CCC(C)[C@H](N)C(=O)Nc1ccc([N+](=O)[O-])cc1` (stereo partly shown) [Ile-pNA], at PaPepA [1], the Km turned out to be 100 ± 30 µM and the kcat is 0.004 ± 0.000 s^–1.

As for `Cc1cc(=O)oc2cc(NC(=O)[C@H](N)CC(C)C)ccc12` [Leu-AMC], the “k3, best-fitted value” on PaPepA [3] (E + S = ES, S is Leu-AMC) worked out at 2.3 ± 0.1 μM^–1 s^–1. For the same molecule, the “k-3, best-fitted value” at PaPepA [3] (E + S = ES, reverse, S is Leu-AMC) is on record as 47.9 ± 0.6 s^–1. In addition, the “k5, best-fitted value” on PaPepA [3] (EP = E + P) turned out to be 13.4 ± 0.1 s^–1. For the same molecule, the “k4, best-fitted value” at PaPepA [3] (ES = EP) amounted to 6.3 ± 0.1 s^–1.

As for `CC(C)C[C@H](N)C(=O)Nc1ccc([N+](=O)[O-])cc1` [Leu-pNA, reference compound], the Michaelis constant (Km) on PaPepA [1] amounted to 160 ± 10 µM. For the same molecule, the kcat came out at 0.254 ± 0.005 s^–1 on PaPepA [1]; 0.335 ± 0.004 at PaPepA [4] (H2O (0% PEG-8000), other saturating, in 1/s); 0.391 ± 0.008 at PaPepA [5]. In addition, the “Slope (sucrose) on kcat” value on PaPepA [4] (sucrose as viscogen) worked out at 0.03 ± 0.01.

For the molecule `NCCCC[C@H](N)C(=O)Nc1ccc([N+](=O)[O-])cc1` [Lys-pNA], on PaPepA [1], the Michaelis constant (Km) stood at 280 ± 40 µM and the kcat is recorded as 0.039 ± 0.002 s^–1.

In the case of `CSCC[C@H](N)C(=O)Nc1ccc([N+](=O)[O-])cc1` [Met-pNA], on PaPepA [1], the Km amounted to 150 ± 20 µM and the kcat amounted to 0.084 ± 0.003 s^–1.

For `[Ni+2]` [Ni^2+], on PaPepA [2], the KACT is listed as 2.5 ± 0.4 mM, the kcat is given as 0.077 ± 0.003 s^–1 and the kcat/KACT is on record as 0.032 ± 0.005 s^–1mM^–1.

For `N[C@@H](Cc1ccccc1)C(=O)Nc1ccc([N+](=O)[O-])cc1` [Phe-pNA], on PaPepA [1], the Michaelis-Menten constant (Km) turned out to be 260 ± 50 µM and the kcat came to 0.115 ± 0.008 s^–1.

For the molecule `O=C(Nc1ccc([N+](=O)[O-])cc1)[C@@H]1CCCN1` [Pro-pNA], at PaPepA [1], the kcat was determined as 0.081 ± 0.003 s^–1. Further, the Michaelis-Menten constant (Km) at PaPepA [1] (read-out: KM) is 1200 ± 80 µM.

On to `CC(C)[C@H](N)C(=O)Nc1ccc([N+](=O)[O-])cc1` [Val-pNA], for which, at PaPepA [1], the Km was 50 ± 40 µM and the kcat is 0.002 ± 0.001 s^–1.

Consider “EKDIVGAVLK [tryptic peptide of yeast ADH (MassPREP digestion standard)]”, for which, in the test with PaPepA [6], the “Cleaved?” value was “Not digested”.

Take “GVIFYESHGK [tryptic peptide of yeast ADH (MassPREP digestion standard)]”: the “Cleaved?” value with PaPepA [6] was “Digested (Peptides present in control samples but absent in reactions (integrated area <1000) were classified as “digested”)”.

As for “VLGIDGGEGK [tryptic peptide of yeast ADH (MassPREP digestion standard)]”, the “Cleaved?” value with PaPepA [6] is “Digested (Peptides present in control samples but absent in reactions (integrated area <1000) were classified as “digested”)”.
